Assays:
Assay in all cases: RP-HPLC product detection, […] nm
Format in all cases: biochemical
LA2383 = biological target: T1, LA2383 (Leptospira interrogans, UniProt Q8F3L8); conditions: 10 uM substrate; pH 8.5; 5 mM MgCl2; 10 mM MnCl2; 28 C, 1 h
T1 construct: gene LA_2383; HD-GYP protein lacking the conserved HD residues, pET-28a or pET-32a, E. coli BL21(DE3), Ni-NTA

LA2528 = biological target: T2, LA2528 (Leptospira interrogans, UniProt Q8F383); conditions: 100 uM GTP; pH 7.8; 10 mM MgCl2; 28 C, 1 h; product c-di-GMP
T2 construct: gene pleD; full-length REC-GGDEF protein, pET-28a or pET-32a, E. coli BL21(DE3), Ni-NTA

LA1483 = biological target: T3, LA1483 (Leptospira interrogans, UniProt Q8F629); conditions: 100 uM GTP; pH 7.8; 10 mM MgCl2; 28 C, 1 h; product c-di-GMP
T3 construct: gene LA_1483; full-length GAF-GGDEF protein, pET-28a or pET-32a, E. coli BL21(DE3), Ni-NTA
T3 sequence (Q8F629 entry or part of it): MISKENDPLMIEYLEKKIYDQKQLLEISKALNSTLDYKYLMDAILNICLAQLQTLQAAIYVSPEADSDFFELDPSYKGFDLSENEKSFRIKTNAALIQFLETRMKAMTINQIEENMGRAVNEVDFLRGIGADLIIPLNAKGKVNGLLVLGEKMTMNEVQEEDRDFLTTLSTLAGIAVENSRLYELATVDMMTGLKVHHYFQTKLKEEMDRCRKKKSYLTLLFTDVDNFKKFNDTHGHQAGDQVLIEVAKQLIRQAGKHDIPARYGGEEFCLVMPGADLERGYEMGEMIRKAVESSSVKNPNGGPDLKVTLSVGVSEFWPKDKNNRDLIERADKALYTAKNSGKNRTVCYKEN

T1 sequence (Q8F3L8 entry or part of it): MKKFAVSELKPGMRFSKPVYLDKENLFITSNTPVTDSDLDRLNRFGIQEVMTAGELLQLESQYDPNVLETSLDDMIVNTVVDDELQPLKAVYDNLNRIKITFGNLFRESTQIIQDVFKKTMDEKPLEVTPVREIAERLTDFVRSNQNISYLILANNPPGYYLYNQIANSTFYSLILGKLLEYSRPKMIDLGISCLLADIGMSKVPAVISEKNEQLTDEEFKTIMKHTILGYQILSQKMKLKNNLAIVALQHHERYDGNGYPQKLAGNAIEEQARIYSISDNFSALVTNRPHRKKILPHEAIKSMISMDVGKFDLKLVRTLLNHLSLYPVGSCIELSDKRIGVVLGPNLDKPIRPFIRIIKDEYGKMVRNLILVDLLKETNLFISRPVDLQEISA
T2 sequence (Q8F383 entry or part of it): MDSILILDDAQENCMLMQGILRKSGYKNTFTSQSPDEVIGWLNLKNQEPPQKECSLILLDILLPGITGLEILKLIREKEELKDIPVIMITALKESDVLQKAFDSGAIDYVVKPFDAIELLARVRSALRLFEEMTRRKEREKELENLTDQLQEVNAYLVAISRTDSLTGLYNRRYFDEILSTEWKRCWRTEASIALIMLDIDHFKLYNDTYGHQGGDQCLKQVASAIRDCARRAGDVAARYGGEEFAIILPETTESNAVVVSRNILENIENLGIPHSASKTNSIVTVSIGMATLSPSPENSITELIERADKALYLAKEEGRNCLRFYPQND

Row | SMILES | RP-HPLC product detection, 254 nm (LA2383) | RP-HPLC product detection, 254 nm (LA2528) | RP-HPLC product detection, 254 nm (LA1483)
1 | Nc1nc2c(ncn2[C@@H]2O[C@H](COP(=O)(O)O[C@H]3[C@@H](O)[C@H](n4cnc5c(=O)[nH]c(N)nc54)O[C@@H]3COP(=O)(O)O)[C@@H](O)[C@H]2O)c(=O)[nH]1 [pGpG] | LA2383 was able to hydrolyze both c-di-GMP and pGpG in vitro and produce GMP |  | 
2 | Nc1nc2c(ncn2[C@@H]2O[C@@H]3COP(=O)(O)O[C@H]4[C@@H](O)[C@H](n5cnc6c(=O)[nH]c(N)nc65)O[C@@H]4COP(=O)(O)O[C@H]3[C@H]2O)c(=O)[nH]1 [c-di-GMP] | LA2383 was able to hydrolyze both c-di-GMP and pGpG in vitro and produce GMP |  | 
3 | Nc1nc2c(ncn2[C@@H]2O[C@H](COP(=O)(O)OP(=O)(O)OP(=O)(O)O)[C@@H](O)[C@H]2O)c(=O)[nH]1 [GTP] |  | they are able to utilize GTP to produce c-di-GMP | they are able to utilize GTP to produce c-di-GMP
